The values that follow come from patent US10287267B2, “Isoquinolin-3-yl carboxamides and preparation and use thereof” (Samumed, LLC, priority 2016, dated 2019).

Assay [1] deals with Wnt pathway (Sp5-Luc reporter, TCF/LEF binding sites) in SW480 colon carcinoma cells. The assay can be described thus: Screening assay for Wnt activity: Sp5-Luc reporter gene assay.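 For all read-outs here: firefly luciferase luminescence read in stably transduced SW480 cells carrying the Sp5 promoter reporter with eight TCF/LEF sites, compounds given in 0.1% DMSO final.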 The class given is cell-based, human. As to conditions: Homo sapiens; for EC50: Sp5-Luc reporter, SW480 cells, 36 to 48 hours. Background: Reporter assays use an easily measured gene product as a stand-in for the process of interest.
Procedure: The screening assay for Wnt activity is described as follows.
Following incubation, 15 μl of BriteLite Plus luminescence reagent (Perkin Elmer) was added to each well of the 384-well assay plates. The plates were placed on an orbital shaker for 2 min and then luminescence was quantified using the Envision (Perkin Elmer) plate reader.

The target of assay [2] is recombinant DYRK1A kinase (Homo sapiens (Human), UniProt Q13627). The assay can be described thus: DYRK1A kinase assay (Ser/Thr 18 peptide Z-lyte FRET).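 Note: Read-out is the coumarin to fluorescein emission ratio, referenced to unphosphorylated (0%) and phosphorylated (100%) Ser/Thr 18 peptide controls, values from dose-response curves by non-linear regression.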 The class given is biochemical. As to conditions: 30 μM ATP, 1 h room temperature.
Assay [3] addresses recombinant GSK3β kinase (Homo sapiens (Human), UniProt P49841). The assay can be described thus: GSK3β kinase assay (Ser/Thr 09 peptide Z-lyte FRET).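 Note: kinase activity read as coumarin to fluorescein emission ratio, 11-point threefold dilutions from 10 µM to 0.0003 µM in duplicate, unphosphorylated and phosphorylated peptide as 0% and 100% controls.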 The assay is classed as biochemical. As to conditions: 46 μM ATP, 1 h room temperature.
In assay [4] the test system is Tau phosphorylation at Ser396 (pSer396). The assay can be described thus: Tau phosphorylation assay (pSer396 ELISA / western blot) in SH-SY5Y cells.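 Note: EC50 for reduction of Tau pSer396 in lysed cells, measured by colorimetric ELISA or chemiluminescent western blot, both using the same pSer396 antibody.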 As to conditions: Homo sapiens, read-out: pSer396 Tau EC50. The class given is cell-based, human. A general note: An ELISA detects its analyte on a solid surface through an enzyme-linked reagent.
For assay [5], the system named is SW480 colon carcinoma cells. The assay can be described thus: Cell viability assay (CellTiter-Glo). The assay is classed as cell-based, human. As to conditions: Homo sapiens; for EC50: 96 h, SW480 cells, CellTiter-Glo, four days incubation; for inhibition at 10 µM: SW480, read-out: percent inhibition at 10 μM.
For assay [6], the system named is α-smooth muscle actin (αSMA) positive LL29 cells. The assay can be described thus: Inhibition of fibrotic process: αSMA in TGF-β1 treated primary human fibroblasts from IPF patients.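 For all read-outs here: controls were TGF-β1 stimulated wells with DMSO vehicle (positive) and cells given DMSO alone (negative), cultured in F12 medium with 1% fetal bovine serum.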 The class given is cell-based. As to conditions: Homo sapiens, Fibroblast; for EC50: 96 h, Table 8, LL29 fibroblasts from IPF patients, TGF-β1 20 ng/mL, 4 days, dose-response 10 μM to 0.94 nM; for inhibition at 10 µM: read-out: percent value in parentheses beside EC50 >10 μM.

Assay [7] concerns IL-6. The assay can be described thus: IL-6 inhibition in LPS-stimulated human peripheral blood mononuclear cells (HTRF).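 For all read-outs here: IL-6 detected by HTRF with an XL665- and Cryptate-labelled anti-IL-6 antibody pair, samples run in duplicate, EC50 obtained from a four-parameter Levenberg-Marquardt curve fit.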 The assay is classed as cell-based. As to conditions: Homo sapiens, PBMC; for inhibition at 10 µM: read-out: percent value in parentheses beside EC50 >10 μM; for EC50: Table 9, huPBMCs, LPS 50 ng/mL, 22 hours, dose-response starting from 10 μM.
Procedure: After 22 hour incubation, a mixture of anti-IL6 XL665 and anti-IL-6 Cryptate diluted in reconstitution buffer (Catalog #62IL6PEC, Cisbio Inc., Bedford, Mass.) was added to each well. […] All samples were processed in duplicate. […] EC50 was determined using software generated by Dotmatics Limited (Windhill Bishops Stortford Herts, UK) using the Levenberg-Marquardt 4 parameter fitting procedure with finite different gradients.
[8] abbreviates: SH-SY5Y cells, overnight (16-18 h) exposure.

Like-named read-outs stand apart in the source and are kept apart here. Bounds are passed on as bounds.

One may read the EC50 as the concentration that produces a half-maximal response.

Chain of recombinant GSK3β kinase (P49841 whole entry): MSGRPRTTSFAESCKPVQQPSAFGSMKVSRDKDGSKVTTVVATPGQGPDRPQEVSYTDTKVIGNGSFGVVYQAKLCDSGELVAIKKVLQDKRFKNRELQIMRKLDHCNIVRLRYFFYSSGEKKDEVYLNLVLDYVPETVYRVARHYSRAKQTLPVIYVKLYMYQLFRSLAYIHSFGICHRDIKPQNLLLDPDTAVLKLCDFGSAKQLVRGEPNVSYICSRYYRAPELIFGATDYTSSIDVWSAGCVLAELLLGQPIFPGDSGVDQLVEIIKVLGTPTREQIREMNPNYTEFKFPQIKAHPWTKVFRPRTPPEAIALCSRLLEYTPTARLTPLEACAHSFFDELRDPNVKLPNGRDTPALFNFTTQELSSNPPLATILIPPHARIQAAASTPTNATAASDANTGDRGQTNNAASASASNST

As for `Cc1ncc(-c2ccc3cnc(NC(=O)CN4CCOCC4)cc3c2)s1` [Compound 994, N-(6-(2-Methylthiazol-5-yl)isoquinolin-3-yl)-2-morpholinoacetamide], the EC50 is 7900 nM in assay [1]; 12.9 nM in assay [2]; 110 nM in assay [3]; 1900 nM in assay [4] (setting [8]); greater than 10000 nM in assay [5]; 567 nM in assay [6]. In assay [7], the EC50 was greater than 10000 nM. Besides, the inhibition at 10 µM in assay [5] came out at 36.8%; in assay [7] it was 31.8%.

Turning to `Cc1ncc(-c2ccc3cnc(NC(=O)CN4CCN(C)CC4)cc3c2)s1` [Compound 995, 2-(4-Methylpiperazin-1-yl)-N-(6-(2-methylthiazol-5-yl)isoquinolin-3-yl) acetamide], the inhibition at 10 µM in assay [1] (SW480, read-out: percent inhibition at 10 μM) was determined as 43.8%; in assay [5], 47.6%. In addition, the EC50 was greater than 10000 nM in assay [1]; 13.3 nM in assay [2]; 177 nM in assay [3]; 2400 nM in assay [4] (setting [8]); greater than 10000 nM in assay [5]; 1250 nM in assay [6]. In assay [7], this compound displayed an EC50 of 8930 nM.

As for `Cc1ncc(-c2ccc3cnc(NC(=O)CN4C[C@H]5C[C@@H]4CO5)cc3c2)s1` [Compound 996, 2-((1R,4R)-2-Oxa-5-azabicyclo[2.2.1]heptan-5-yl)-N-(6-(2-methylthiazol-5-yl)isoquinolin-3-yl)acetamide], the EC50 is 4390 nM in assay [1]; 13.4 nM in assay [2]; 141 nM in assay [3]; 3100 nM in assay [4] (setting [8]); greater than 10000 nM in assay [5]; 1200 nM in assay [6]. This compound returned an EC50 in assay [7] greater than 10000 nM. Further, the figures for the inhibition at 10 µM in assay [5] and in assay [7] were 32.2% and 10.6%, respectively.

For `O=C(Nc1cc2cc(-c3cnn4c3CNCC4)ccc2cn1)C1CCN(CC2(C(F)(F)F)CC2)CC1` [Compound 997, N-(6-(4,5,6,7-Tetrahydropyrazolo[1,5-a]pyrazin-3-yl)isoquinolin-3-yl)-1-((1-(trifluoromethyl)cyclopropyl)methyl)piperidine-4-carboxamide], the EC50 in assay [1] came to 3890 nM; in assay [2], 186 nM; in assay [3], 33 nM; in assay [4] (setting [8]) it was 1300 nM; in assay [5], 5060 nM; in assay [6], 567 nM. In assay [7], this compound showed an EC50 greater than 10000 nM. Also, the inhibition at 10 µM in assay [7] worked out at 28.6%.

`O=C(Nc1cc2cc(-c3cnn4c3CN(CCF)CC4)ccc2cn1)C1CCN(CC2(C(F)(F)F)CC2)CC1` [Compound 998, N-(6-(5-(2-Fluoroethyl)-4,5,6,7-tetrahydropyrazolo[1,5-a]pyrazin-3-yl)isoquinolin-3-yl)-1-((1-(trifluoromethyl)cyclopropyl)methyl)piperidine-4-carboxamide]: the EC50 in assay [1] was 2250 nM; in assay [2], 6.2 nM; in assay [3], 102 nM; in assay [4] (setting [8]), 638 nM; in assay [5], 4750 nM; in assay [6], 260 nM. This compound registered an EC50 in assay [7] of 7080 nM.

As to `O=C(CN1CCCC1)Nc1cc2cc(-c3cnn4c3CN(CCF)CC4)ccc2cn1` [Compound 999, N-(6-(5-(2-Fluoroethyl)-4,5,6,7-tetrahydropyrazolo[1,5-a]pyrazin-3-yl)isoquinolin-3-yl)-2-(pyrrolidin-1-yl)acetamide], the concentration giving a half-maximal response (EC50) is 3100 nM in assay [1]; 20.9 nM in assay [2]; 86 nM in assay [3]; 659 nM in assay [4] (setting [8]); 7510 nM in assay [5]; 779 nM in assay [6]. The compound further came in with a half-maximal effective concentration (EC50) in assay [7] greater than 10000 nM. Further, in assay [7], the inhibition at 10 µM was found to be 30.3%.

As for `O=C(CN1C2CCC1CC2)Nc1cc2cc(-c3cnn4c3CN(CCF)CC4)ccc2cn1` [Compound 1000, 2-(7-Azabicyclo[2.2.1]heptan-7-yl)-N-(6-(5-(2-fluoroethyl)-4,5,6,7-tetrahydropyrazolo[1,5-a]pyrazin-3-yl)isoquinolin-3-yl)acetamide], the EC50 in assay [1] was found to be 4320 nM; in assay [2], 11.1 nM; in assay [3], 270 nM; in assay [4] (SH-SY5Y) it was 1500 nM; in assay [5] it was 7300 nM; in assay [6], 2960 nM. Besides, the response in assay [7] was half-maximal at 8720 nM (EC50).

`CO[C@H]1CC[C@@H](C(=O)Nc2cc3cc(-c4nnc(C)s4)ccc3cn2)CC1` [Compound 1001, cis-4-Methoxy-N-(6-(5-methyl-1,3,4-thiadiazol-2-yl)isoquinolin-3-yl) cyclohexane-1-carboxamide]: the EC50 is 593 nM in assay [1]; 7.3 nM in assay [2]; 9 nM in assay [3]; 3300 nM in assay [4] (setting [8]); 677 nM in assay [5]; 65 nM in assay [6]. In assay [7], this compound had an EC50 greater than 10000 nM.

As for `CC(C)CN1CCC[C@@H](C(=O)Nc2cc3cc(-c4cnn5c4CN(CCF)CC5)ccc3cn2)C1` [Compound 1002, (R)—N-(6-(5-(2-Fluoroethyl)-4,5,6,7-tetrahydropyrazolo[1,5-a]pyrazin-3-yl)isoquinolin-3-yl)-1-isobutylpiperidine-3-carboxamide], the EC50 in assay [1] was 1920 nM; in assay [2], 28.5 nM; in assay [3], 425 nM; in assay [4] (setting [8]), 1900 nM; in assay [5] it was greater than 10000 nM; in assay [6], greater than 10000 nM. Besides, the EC50 in assay [7] is greater than 10000 nM. In addition, the inhibition at 10 µM in assay [5] is 37.6%; in assay [6], 27.5%; in assay [7], 5.9%.

For the compound `Cn1cc(-c2ccc3cnc(NC(=O)C4CCN(Cc5ncccn5)CC4)cc3c2)cn1` [Compound 1003, N-(6-(1-Methyl-1H-pyrazol-4-yl)isoquinolin-3-yl)-1-(pyrimidin-2-ylmethyl)piperidine-4-carboxamide], the EC50 in assay [1] was 1320 nM; in assay [2] it was 2.1 nM; in assay [3], 43 nM; in assay [4] (setting [8]) it was 732 nM; in assay [5] it was 804 nM; in assay [6] it was 49 nM. This compound also had an EC50 in assay [7] of 1150 nM.

For the compound `Cn1cc(-c2ccc3cnc(NC(=O)C4CCN(Cc5cnccn5)CC4)cc3c2)cn1` [Compound 1004, N-(6-(1-Methyl-1H-pyrazol-4-yl)isoquinolin-3-yl)-1-(pyrazin-2-ylmethyl)piperidine-4-carboxamide], the EC50 in assay [1] was determined as 618 nM; in assay [2] it was 2 nM; in assay [3], 37 nM; in assay [4] (setting [8]), 667 nM; in assay [5], 678 nM; in assay [6], 5040 nM. Besides, in assay [7], the EC50 turned out to be 1180 nM.

In the case of `Cc1nc(CN2CCC(C(=O)Nc3cc4cc(-c5cnn(C)c5)ccc4cn3)CC2)no1` [Compound 1005, 1-((5-Methyl-1,2,4-oxadiazol-3-yl)methyl)-N-(6-(1-methyl-1H-pyrazol-4-yl)isoquinolin-3-yl)piperidine-4-carboxamide], the EC50 in assay [1] came to 1400 nM; in assay [2], 1.5 nM; in assay [3], 32 nM; in assay [4] (setting [8]), 898 nM; in assay [5], 1130 nM; in assay [6], 72 nM. In assay [7], this compound showed a half-maximal effective concentration (EC50) of 2890 nM.

With `CC(C)OCC(=O)Nc1cc2cc(-c3cncn3C)ccc2cn1` [Compound 1008, 2-Isopropoxy-N-(6-(1-methyl-1H-imidazol-5-yl)isoquinolin-3-yl)acetamide], the EC50 in assay [1] is 3350 nM; in assay [2], 7.5 nM; in assay [3], 91 nM; in assay [4] (setting [8]), 643 nM; in assay [5], greater than 10000 nM; in assay [6] it was 318 nM. The EC50 in assay [7] turned out to be 7590 nM. The inhibition at 10 µM in assay [5] worked out at 37.2%.

Consider `CC(C)OCCC(=O)Nc1cc2cc(-c3cncn3C)ccc2cn1` [Compound 1009, 3-Isopropoxy-N-(6-(1-methyl-1H-imidazol-5-yl)isoquinolin-3-yl) propanamide], for which the EC50 in assay [1] is 1110 nM; in assay [2], 6.2 nM; in assay [3], 15 nM; in assay [4] (setting [8]), 68 nM; in assay [5], 2350 nM; in assay [6], greater than 10000 nM. The response in assay [7] was half-maximal at 1840 nM (EC50). In addition, the inhibition at 10 µM in assay [6] turned out to be 22.4%.

Take `Cn1cc(-c2ccc3cnc(NC(=O)C4CCN(CC(=O)OC(C)(C)C)CC4)cc3c2)cn1` [Compound 1010, tert-Butyl 2-(4-((6-(1-methyl-1H-pyrazol-4-yl)isoquinolin-3-yl)carbamoyl)piperidin-1-yl)acetate]: the EC50 came out at 2020 nM in assay [1]; 2.6 nM in assay [2]; 53 nM in assay [3]; 622 nM in assay [4] (setting [8]); 3960 nM in assay [5]; 103 nM in assay [6]. The midpoint of the response in assay [7], the EC50, lay at 1170 nM.
